In PMC10606064, “2-Aminothiazole-Flavonoid Hybrid Derivatives Binding to Tau Protein and Responsible for Antitumor Activity in Glioblastoma” (International Journal of Molecular Sciences, 2023):

Assays:
[1] = target: T1, Tau protein (full-length human Tau, hTau40) (Homo sapiens, UniProt P10636); experiment: Tau intrinsic fluorescence quenching, modified Stern–Volmer binding parameters; conditions: 5 µM Tau, buffer B pH 6.8, mean ± SD; for Kd: read-out: Equilibrium Binding Constants to Tau, KD
T1 construct: The full-length human Tau (hTau40) was expressed in a transformed E. coli BL21 (DE3) strain; made in house; host or cells: E. coli BL21 (DE3)
T1 sequence (P10636 1-441 isoform P10636-8): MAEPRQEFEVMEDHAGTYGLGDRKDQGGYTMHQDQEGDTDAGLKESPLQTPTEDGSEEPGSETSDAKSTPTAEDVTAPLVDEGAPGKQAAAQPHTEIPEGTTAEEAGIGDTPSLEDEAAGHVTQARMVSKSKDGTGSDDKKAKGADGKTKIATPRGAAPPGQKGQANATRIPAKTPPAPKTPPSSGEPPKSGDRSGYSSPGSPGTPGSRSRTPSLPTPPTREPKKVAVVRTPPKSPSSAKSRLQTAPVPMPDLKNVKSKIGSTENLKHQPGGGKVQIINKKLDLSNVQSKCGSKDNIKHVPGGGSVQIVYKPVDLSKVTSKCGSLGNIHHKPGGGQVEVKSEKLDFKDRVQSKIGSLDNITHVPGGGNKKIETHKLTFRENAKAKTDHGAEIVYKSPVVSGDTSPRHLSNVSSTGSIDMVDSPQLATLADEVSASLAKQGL
Procedure: Fluorescence measurements were performed with a Horiba Jobin Yvon FluoroMax-3 spectrofluorometer. […] For experiments, the excitation wavelength was fixed at 275 nm, and the emission spectra were recorded between 280 nm and 500 nm at room temperature. The inner filter effects were corrected according to Lakowicz as follows:F = Fobs × exp{(Aem + Aex)/2}(2) where Fobs and F are the observed and corrected fluorescence values at the emission wavelength of 303 nm. Aex and Aem are the absorptions at the excitation and emission wavelengths, respectively, calculated with A = ε.l.C, in which ε is the extinction coefficient of Tau, l is the path length of cuvette, and C is Tau concentration.
The total fluorescence in the absence of quencher (F0) is given by:F0 = F0a + F0b(4) where 0 refers to the fluorescence intensity in the absence of quencher.
In the presence of quencher, we defined fa as the fraction of the initial fluorescence of Tau accessible to compounds:fa = F0a/(F0a + F0b)(5)
Therefore, the intensity of the accessible fraction (fa) is decreased according to the Stern–Volmer equation, whereas the buried fraction is not quenched, as given by:F = {F0a/(1 + K.[Q])} + F0b(6)
Then, subtraction of Equations (6) and (4) yields:ΔF = F0 − F = F0a × {K.[Q]/(1 + K.[Q])}(7)
At last, inversion of Equation (7) followed by division into Equation (4) yields:F0/ΔF = {1/(fa.K.[Q])} + 1/fa(8)
We applied this modified form of the Stern–Volmer equation to graphically determine the values of fa and K. For our experiments, we plotted F0/ΔF against 1/[Q], then we determined the fa value at the point of intersection with the y-axis, while the slope represented (faK)^−1.

[2] = tested on: U87 shCTRL cells; experiment: Mitochondria network analysis (citrate synthase immunofluorescence), U87 shCTRL; format: cell-based, human; conditions: 5 µM, 24 h (Figure 4 legend: 48 h)
Procedure: For indirect immunofluorescence of mitochondria, 10^4 cells were plated on cover glass and incubated for 24 h with compounds. Cells were then fixed in 4% formaldehyde (in PBS pH 7.4) for 20 min at RT, permeabilized with PBS-Triton X-100 0.5% for 10 min at RT. Immunostaining was carried out overnight at 4 °C with a primary anti-citrate synthase antibody (dilution 1:400 in PBS-BSA 3%; SC390693; SantaCruz Biotechnologies, Heidelberg, Germany). The following day, the cells were washed then incubated with anti-mouse secondary antibody (dilution 1:800 in PBS-BSA 3%; A-11029; Invitrogen) and TRITC-phalloidin (dilution 1:2500 in PBS-BSA 3%; P1951; Sigma-Aldrich, Saint-Quentin-Fallavier, France) for 1 h at RT in the dark. For the microtubule network, the same protocol for mitochondria labeling was carried out by replacing with primary anti-α-tubulin antibody (dilution 1:400 in PBS-BSA 1% from a 1 mg/mL solution; monoclonal antibody, clone DM1A, Sigma-Aldrich, Saint-Quentin-Fallavier, France). Next, cells were washed in PBS and cover glasses were mounted with a drop of ProLong® anti-fade solution (Invitrogen). Mitochondria and cytoskeletons were imaged using a confocal laser scanning microscope (CLSM) Leica SP5 with a Leica inverted microscope, equipped with a Plan-Apochromat 63×oil immersion objective (NA = 1.4). Each image was recorded with the CLSM’s spectral mode selecting specific domains of the emission spectrum. The Alexafluor488 and FITC fluorophores were excited at 488 nm with an argon laser, and fluorescence emission was collected between 496 nm and 535 nm. The TRITC fluorophore was excited at 543 nm with a helium–neon laser, and fluorescence was collected between 560 and 620 nm. The public-domain Fiji v1.54f software was used for image analysis.
The analyses of mitochondria and microtubule networks were performed using, respectively, the ‘Mitochondria analyzer’ plugin for Fiji v1.54f software and the method described in our earlier work. Briefly, a series of images were transferred to the software and corrected for background fluorescence intensity contribution. Next, the surface of 50 single cells was measured by considering the cell shape as the boundary of labelling of actin or α-tubulin cytoskeletons (respectively for measurement on mitochondria or microtubules). Then, the mitochondria elongation and mean branch junction per mitochondria parameters, and the surface of the microtubule network, were measured by performing systematically the Otsu method to reduce all gray-level images to binary images. […] Moreover, the ratios of microtubules on cell surfaces were calculated as percentages.

[3] = tested on: lactate-dehydrogenase (LDH) of U87 shCTRL and U87 shTau cells; experiment: LDH activity in the medium (necrosis); format: cell-based; conditions: both cell types, 24 h treatment
Procedure: death. (A) The apoptotic protein casp ase 3 (Casp 3) was analy zed by western blot of U87 shCTRL and U87 shTau cells: for each s ample t he ratio between the amount of Casp3 and GAPDH was calculated as relative fold of the reference value (with or without the compound); n = 3 lysates, ns: non-si gnificant. […]
blot used for quantification. (B) The activity of necrotic LDH protein was analy zed by fluorescence emission in U87 shCTRL (upper panel) and U87 shTau (lower panel) cells. For each s ample, the ratio between LDH florescence was calculated as the percentage of activity against reference value (0,1% Triton); n = 3 lysates; Significant statistical differences were calculated using a non-parametric Mann-Whitney test with **P < 0.01; n.s: non-significant.
(1 picture or pasted object on this page, not shown here)

[4] = target: T2, Tau-induced microtubule assembly (tubulin) (Homo sapiens, UniProt P10636); experiment: Turbidimetry of in vitro Tau-induced microtubule assembly; format: biochemical, lamb; conditions: 10 µM tubulin, 5 µM Tau, 2.5–50 µM compound, 37 °C
T2 construct: The full-length human Tau (hTau40) was expressed in a transformed E. coli BL21 (DE3) strain; made in house; host or cells: Tau: E. coli BL21 (DE3); tubulin: purified from lamb brain tissue
T2 sequence (P10636 2-441 isoform P10636-8): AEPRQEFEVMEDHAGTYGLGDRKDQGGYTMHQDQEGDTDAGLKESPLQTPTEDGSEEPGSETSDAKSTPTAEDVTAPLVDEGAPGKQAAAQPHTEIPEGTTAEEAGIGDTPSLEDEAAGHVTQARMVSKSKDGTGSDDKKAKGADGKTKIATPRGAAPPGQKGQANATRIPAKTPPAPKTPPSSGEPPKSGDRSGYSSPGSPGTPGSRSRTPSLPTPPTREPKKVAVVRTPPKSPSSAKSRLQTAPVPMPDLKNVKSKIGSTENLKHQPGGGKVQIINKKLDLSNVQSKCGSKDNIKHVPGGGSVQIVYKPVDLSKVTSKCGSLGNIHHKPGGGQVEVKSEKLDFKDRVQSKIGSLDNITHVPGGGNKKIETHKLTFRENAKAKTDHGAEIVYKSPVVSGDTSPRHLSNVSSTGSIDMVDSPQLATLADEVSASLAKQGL
Procedure: The polymerization of tubulin was monitored by measuring the apparent absorbance at 350 nm using a Beckman DU 7400 spectrophotometer at 37 °C. Tubulin at a final concentration of 10 µM was mixed with compounds at the indicated concentration and immediately placed into the spectrometer chamber. When the signal was stable, Tau at a final concentration of 5 µM was added to induce microtubule formation. Measurements were continued until turbidity values reached a plateau.

Row | SMILES | Equilibrium Binding Constants to Tau, fA (Tyr accessible fraction) [1] | Kd [1] | change in elongation index of mitochondria [2] | reduction in the number of branch junctions per mitochondria [2] | LDH activity [3] | effect on turbidity time course of Tau-induced microtubule assembly [4]
1 | Nc1nc2ccc3oc(-c4cccc(Oc5ccccc5)c4)cc(=O)c3c2s1 [Compound 2, 2-amino-7-(3-phenoxyphenyl)-9H-chromeno [6,5-d]thiazol-9-one] | 0.14 ± 0.10 | 4.7 ± 1.8 µM | −12.5% | 1.8 fold | remained similar to untreated cells | no effect on the turbidity time course
2 | Nc1nc2ccc3oc(C(=O)O)cc(=O)c3c2s1 [Compound 5] | 0.38 ± 0.01 | 6.4 ± 1.5 µM | No effect | No effect | remained similar to untreated cells | no effect on the turbidity time course
